Ends that are not written are not given here. * marks the point of attachment. DOTA = O=C(O)CN1CCN(CC(=O)O)CCN(CC(=O)*)CCN(CC(=O)O)CC1; AEEA = NCCOCCOCC(=O)O
Tests used:
[1] = biological target: T1, EDB-FN (Homo sapiens, UniProt P02751); test: ZD2-Cy5.5 fluorescence binding to slides of human pancreatic cancer xenografts; set-up: incubation of ZD2-Cy5.5 with tumor slides of the above tumor xenografts; from tissue; host or cells: Sections of BXPC3, Capan-1, Panc 10.05 and Panc-1 tumour xenografts from female nude mice; normal pancreas and muscle as controls
Description: A ZD2 peptide (Thr-Val-Arg-The-Ser-Ala-Asp) targeted fluorescence tracer ZD2-Cy5.5 was synthesized according to a reported method to assess the binding of the peptide to EDB-FN in PaCa tumors. The binding specificity of ZD2 peptide to EDB-FN in pancreatic cancer has been tested by incubation of ZD2-Cy5.5 with tumor slides of the above tumor xenografts. […] ZD2 peptide is a promising targeting agent for specific binding of EDB-FN in PaCa tumors.

[2] = biological target: T1, EDB-FN; test: ZD2-Cy5.5 staining of human pancreatic specimens; format: binding; set-up: incubation of ZD2-Cy5.5 with tumor slides of the above tumor xenografts; from tissue; host or cells: Sections of BXPC3, Capan-1, Panc 10.05 and Panc-1 tumour xenografts from female nude mice; normal pancreas and muscle as controls
[3] = test system: PC3 human prostate cancer xenografts; test: PET/CT imaging of tracer uptake in PC3 tumors of tumor-bearing mice; format: in vivo
Description: (§1) The animal study has been approved by the Institutional Animal Care and Use Committee of the Case Western Reserve University (CWRU), […]. PC3 and LNCaP cells were acquired from the American Type Culture Collection (ATCC, Manassas, VA, USA) and cultured in Roswell Park Memorial Institute medium (Thermo Fisher Scientific, Waltham, MA) supplemented with 10% fetal bovine serum, 100 U/mL penicillin, and 0.1 mg/mL streptomycin in a humid incubator maintained at 37° C. and 5% CO2. Male athymic nude mice (4-6 weeks old) were acquired from the Case Comprehensive Cancer Center (Cleveland, OH, USA) and housed in the CWRU Animal Core Facility. Three million cells in high concentration Matrigel (Corning, Tewksbury, MA) were used for tumor inoculation. LNCaP cells were subcutaneously inoculated in the left flank of the mice. Four weeks later, PC3 cells were inoculated on the right flank of the same mice for PET imaging.
(§2) The radioisotope ^64Cu(II) was acquired from the University of Wisconsin-Madison (Madison, WI). The chelation of ZD2-PEG-DOTA with Cu(II) was first tested with cold CuCl2 in 0.1 N HCl aqueous solution under the same condition as radiolabeling. […] The formation of ZD2-DA-(Cu-DOTA) was verified by MALDI-TOF mass spectrometry (M+1: 1487.8, observed; 1486.04, calculated). […]

[4] = test system: LNCaP human prostate cancer xenografts; test: PET/CT imaging of tracer uptake in LNCaP tumors of tumor-bearing mice; format: in vivo; conditions: 22 h after injection, 7.4 MBq (200 μCi) per mouse i.v., N=4
Description: as §1, §2

[5] = biological target: T1, EDB-FN; test: ZD2 peptide binding to prostate tissue; set-up: from tissue; host or cells: High-grade and low-grade prostate tumour and normal tissue
[6] = Water solubility; format: physicochemical

T1 sequence (P02751 32-2477): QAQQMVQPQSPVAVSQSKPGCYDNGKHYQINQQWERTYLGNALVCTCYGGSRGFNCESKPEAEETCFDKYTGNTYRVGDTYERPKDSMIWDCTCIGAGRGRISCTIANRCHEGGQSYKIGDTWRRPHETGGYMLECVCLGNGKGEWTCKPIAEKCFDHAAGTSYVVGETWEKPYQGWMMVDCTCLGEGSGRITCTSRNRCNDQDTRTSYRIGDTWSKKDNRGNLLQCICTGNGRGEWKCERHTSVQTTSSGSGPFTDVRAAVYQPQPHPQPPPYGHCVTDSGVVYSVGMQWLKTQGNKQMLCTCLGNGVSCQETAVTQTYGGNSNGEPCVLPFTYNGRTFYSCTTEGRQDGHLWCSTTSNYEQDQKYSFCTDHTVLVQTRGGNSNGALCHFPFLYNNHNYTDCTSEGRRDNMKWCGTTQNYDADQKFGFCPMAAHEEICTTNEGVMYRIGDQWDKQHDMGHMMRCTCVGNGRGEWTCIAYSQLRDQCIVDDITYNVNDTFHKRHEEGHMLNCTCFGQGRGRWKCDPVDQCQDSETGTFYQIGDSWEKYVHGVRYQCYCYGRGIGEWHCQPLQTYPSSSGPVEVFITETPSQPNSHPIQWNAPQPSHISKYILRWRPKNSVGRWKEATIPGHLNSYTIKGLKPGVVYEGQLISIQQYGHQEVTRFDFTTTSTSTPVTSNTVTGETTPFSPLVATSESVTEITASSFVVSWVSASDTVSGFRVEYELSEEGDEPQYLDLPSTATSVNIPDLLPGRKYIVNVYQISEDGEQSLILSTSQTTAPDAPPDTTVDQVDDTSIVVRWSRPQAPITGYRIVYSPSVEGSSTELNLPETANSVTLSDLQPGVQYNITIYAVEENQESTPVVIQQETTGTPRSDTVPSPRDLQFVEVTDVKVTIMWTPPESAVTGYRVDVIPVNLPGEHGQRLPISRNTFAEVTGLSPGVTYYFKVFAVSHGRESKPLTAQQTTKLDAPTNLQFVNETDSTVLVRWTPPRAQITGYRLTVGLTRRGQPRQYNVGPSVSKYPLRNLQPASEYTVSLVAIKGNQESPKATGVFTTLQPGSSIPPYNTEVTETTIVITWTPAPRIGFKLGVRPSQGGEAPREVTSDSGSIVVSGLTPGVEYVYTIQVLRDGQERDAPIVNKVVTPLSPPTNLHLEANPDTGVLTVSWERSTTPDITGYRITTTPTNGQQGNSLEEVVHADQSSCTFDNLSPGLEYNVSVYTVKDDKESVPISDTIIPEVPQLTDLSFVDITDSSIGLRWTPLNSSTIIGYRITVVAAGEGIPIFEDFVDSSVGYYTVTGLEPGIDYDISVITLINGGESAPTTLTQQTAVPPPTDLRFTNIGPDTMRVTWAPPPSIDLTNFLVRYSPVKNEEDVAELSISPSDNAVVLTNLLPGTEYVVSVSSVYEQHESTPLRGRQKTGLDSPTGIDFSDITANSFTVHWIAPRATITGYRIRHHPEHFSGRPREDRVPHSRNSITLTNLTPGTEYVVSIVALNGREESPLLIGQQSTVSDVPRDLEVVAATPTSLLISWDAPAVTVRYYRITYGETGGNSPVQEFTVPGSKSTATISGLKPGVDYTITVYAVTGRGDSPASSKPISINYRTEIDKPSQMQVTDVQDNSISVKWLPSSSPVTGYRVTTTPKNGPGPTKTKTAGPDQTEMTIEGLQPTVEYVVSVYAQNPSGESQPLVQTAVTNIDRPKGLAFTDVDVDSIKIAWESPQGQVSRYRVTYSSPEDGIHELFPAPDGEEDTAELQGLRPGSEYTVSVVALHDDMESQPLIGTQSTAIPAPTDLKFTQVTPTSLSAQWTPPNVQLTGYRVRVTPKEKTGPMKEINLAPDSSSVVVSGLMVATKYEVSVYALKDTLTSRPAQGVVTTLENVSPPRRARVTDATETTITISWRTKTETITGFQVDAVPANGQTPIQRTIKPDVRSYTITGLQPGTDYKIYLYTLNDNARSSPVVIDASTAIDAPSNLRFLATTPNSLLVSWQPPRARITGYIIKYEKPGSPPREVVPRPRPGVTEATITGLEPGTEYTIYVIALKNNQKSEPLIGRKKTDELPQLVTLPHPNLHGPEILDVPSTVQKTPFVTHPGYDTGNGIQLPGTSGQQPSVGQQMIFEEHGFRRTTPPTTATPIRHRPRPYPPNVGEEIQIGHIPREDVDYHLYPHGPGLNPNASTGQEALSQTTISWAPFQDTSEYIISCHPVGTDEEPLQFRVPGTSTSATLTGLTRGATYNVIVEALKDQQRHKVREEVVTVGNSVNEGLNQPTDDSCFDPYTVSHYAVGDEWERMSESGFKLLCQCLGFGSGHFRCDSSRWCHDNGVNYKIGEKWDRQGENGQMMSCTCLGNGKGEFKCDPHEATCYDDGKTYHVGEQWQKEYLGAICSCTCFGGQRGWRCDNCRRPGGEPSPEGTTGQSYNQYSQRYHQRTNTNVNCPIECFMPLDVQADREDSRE

Substance: ZD2-Cy5.5: ZD2 peptide targeted fluorescence tracer synthesized according to a reported method (TVRTSAD; also: Cy5.5 fluorescence tracer attached, site not given here)
- binding to EDB-FN in PaCa after pre-incubation with BC-1 anti-EDB-FN monoclonal antibody ([1]; BC-1/ZD2): blocked
- binding to normal pancreas and muscle ([1]; tissue slides): No significant binding
- binding to BXPC3, Capan-1, Panc 10.05 and Panc-1 tumor tissues ([1]; tumor xenograft slides): strong binding
- fluorescence staining of precancerous pancreatic intraepithelial neoplasia ([2]; human PanIN): some fluorescence intensity
- fluorescence staining of normal pancreas ([2]; human normal pancreas): little fluorescence
- fluorescence staining of human PaCa specimen ([2]; human pancreatic cancer): strong red fluorescence

Substance: ZD2-DA-(^64Cu-DOTA): ZD2 peptide (TVRTSAD) linked via two repeats of 8-amino-3,6-dioxaoctanoic acid to DOTA, complexed with 64Cu ({DOTA-AEEA-AEEA}-TVRTSAD; also: 64Cu chelated by DOTA)
- accumulation of PET tracer in PC3 tumors compared to LNCaP tumors ([3]; 22 h, P<0.05): over two-folds higher
- accumulation of PET tracer in PC3 tumors (ROI) ([3]; 22 h after injection, 7.4 MBq (200 μCi) per mouse i.v., N=4): 7711±1994 Bq/mL
- accumulation of PET tracer in LNCaP tumors (ROI) [4]: 3213±1511 Bq/mL

Substance: TVRTSAD-OH [ZD2 peptide, Thr-Val-Arg-Thr-Ser-Ala-Asp]
- binding in normal tissue [5]: nonbinding
- binding to low-grade tumor [5]: weak binding affinity
- binding toward high-grade prostate tumor [5]: strong binding affinity
- water solubility [6]: highly water-soluble
